According to PMC12406203 (Journal of Medicinal Chemistry, 2025):

Legend:
Assay in all cases: KINOMEscan
Type in all cases: binding
MARK3 = target: T1, MARK3 (Homo sapiens, UniProt P27448)
T1 construct: purchased Eurofins DiscoverX, LLC; host or cells: E. coli (BL21-derived, T7 phage) or HEK-293

CDK9 = target: T2, CDK9 (Homo sapiens, UniProt P50750)
T2 construct: purchased Eurofins DiscoverX, LLC; host or cells: E. coli (T7 phage) or HEK-293

LKB1 = target: T3, LKB1 (Homo sapiens, UniProt Q15831)
T3 construct: purchased Eurofins DiscoverX, LLC; host or cells: E. coli (BL21-derived, T7 phage) or HEK-293
T3 sequence (Q15831 1-433): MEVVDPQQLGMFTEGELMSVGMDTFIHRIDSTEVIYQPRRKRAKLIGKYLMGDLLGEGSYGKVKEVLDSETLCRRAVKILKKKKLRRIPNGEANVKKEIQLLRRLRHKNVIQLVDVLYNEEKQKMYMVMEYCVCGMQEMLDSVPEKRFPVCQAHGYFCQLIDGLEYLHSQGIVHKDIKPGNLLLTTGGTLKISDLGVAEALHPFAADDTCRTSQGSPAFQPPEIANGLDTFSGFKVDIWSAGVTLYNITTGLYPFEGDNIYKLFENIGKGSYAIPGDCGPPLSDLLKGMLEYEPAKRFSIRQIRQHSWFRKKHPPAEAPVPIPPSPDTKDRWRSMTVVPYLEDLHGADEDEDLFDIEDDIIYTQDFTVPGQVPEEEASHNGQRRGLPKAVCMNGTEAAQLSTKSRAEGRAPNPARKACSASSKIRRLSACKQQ

MAP3K4 = target: T4, MAP3K4 (Homo sapiens, UniProt Q9Y6R4)
T4 construct: purchased Eurofins DiscoverX, LLC; host or cells: E. coli (BL21-derived, T7 phage) or HEK-293
T4 sequence (Q9Y6R4 whole entry): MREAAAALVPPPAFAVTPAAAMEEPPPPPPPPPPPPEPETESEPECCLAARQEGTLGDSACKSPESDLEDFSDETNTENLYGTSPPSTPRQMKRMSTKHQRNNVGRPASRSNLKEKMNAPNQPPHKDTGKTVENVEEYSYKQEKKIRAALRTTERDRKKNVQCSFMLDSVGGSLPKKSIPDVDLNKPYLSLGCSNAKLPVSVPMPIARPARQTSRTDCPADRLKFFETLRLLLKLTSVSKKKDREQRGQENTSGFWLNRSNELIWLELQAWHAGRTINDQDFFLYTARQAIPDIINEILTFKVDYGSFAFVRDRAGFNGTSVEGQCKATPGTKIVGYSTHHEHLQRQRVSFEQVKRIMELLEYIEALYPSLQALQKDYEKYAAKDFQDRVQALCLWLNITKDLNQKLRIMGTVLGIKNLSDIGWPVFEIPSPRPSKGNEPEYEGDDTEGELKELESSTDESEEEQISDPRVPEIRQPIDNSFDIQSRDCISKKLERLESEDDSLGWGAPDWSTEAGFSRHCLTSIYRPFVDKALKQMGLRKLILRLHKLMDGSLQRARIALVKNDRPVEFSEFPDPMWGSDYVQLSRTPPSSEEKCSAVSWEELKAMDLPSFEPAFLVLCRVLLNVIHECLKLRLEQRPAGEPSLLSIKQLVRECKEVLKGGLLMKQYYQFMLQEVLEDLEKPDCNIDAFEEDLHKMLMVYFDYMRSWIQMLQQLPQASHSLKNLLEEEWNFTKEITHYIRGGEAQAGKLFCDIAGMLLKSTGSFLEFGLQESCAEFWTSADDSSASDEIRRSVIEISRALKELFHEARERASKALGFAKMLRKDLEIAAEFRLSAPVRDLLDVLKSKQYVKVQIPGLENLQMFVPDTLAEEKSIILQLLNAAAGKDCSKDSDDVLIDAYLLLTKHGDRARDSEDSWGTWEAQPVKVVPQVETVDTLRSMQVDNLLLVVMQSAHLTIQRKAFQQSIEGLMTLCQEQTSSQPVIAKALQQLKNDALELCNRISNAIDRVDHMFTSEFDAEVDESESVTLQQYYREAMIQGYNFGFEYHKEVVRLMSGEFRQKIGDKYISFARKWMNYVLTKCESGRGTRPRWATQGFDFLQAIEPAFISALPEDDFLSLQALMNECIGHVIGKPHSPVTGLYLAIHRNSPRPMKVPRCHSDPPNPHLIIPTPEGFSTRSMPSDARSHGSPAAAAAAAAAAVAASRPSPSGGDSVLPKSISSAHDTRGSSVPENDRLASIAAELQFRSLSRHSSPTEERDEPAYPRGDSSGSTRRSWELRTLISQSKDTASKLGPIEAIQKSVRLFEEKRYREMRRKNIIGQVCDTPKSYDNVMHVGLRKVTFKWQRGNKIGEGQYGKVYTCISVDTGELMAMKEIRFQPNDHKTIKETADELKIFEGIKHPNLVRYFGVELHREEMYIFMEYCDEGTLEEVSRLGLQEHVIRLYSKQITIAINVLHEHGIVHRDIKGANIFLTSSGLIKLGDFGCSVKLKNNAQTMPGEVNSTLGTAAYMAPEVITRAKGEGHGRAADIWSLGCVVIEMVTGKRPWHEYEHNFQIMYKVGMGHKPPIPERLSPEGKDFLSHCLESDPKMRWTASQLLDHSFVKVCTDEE

DYRK1B = target: T5, DYRK1B (Homo sapiens, UniProt Q9Y463)
T5 construct: purchased Eurofins DiscoverX, LLC; host or cells: E. coli (T7 phage) or HEK-293
T5 sequence (Q9Y463 whole entry): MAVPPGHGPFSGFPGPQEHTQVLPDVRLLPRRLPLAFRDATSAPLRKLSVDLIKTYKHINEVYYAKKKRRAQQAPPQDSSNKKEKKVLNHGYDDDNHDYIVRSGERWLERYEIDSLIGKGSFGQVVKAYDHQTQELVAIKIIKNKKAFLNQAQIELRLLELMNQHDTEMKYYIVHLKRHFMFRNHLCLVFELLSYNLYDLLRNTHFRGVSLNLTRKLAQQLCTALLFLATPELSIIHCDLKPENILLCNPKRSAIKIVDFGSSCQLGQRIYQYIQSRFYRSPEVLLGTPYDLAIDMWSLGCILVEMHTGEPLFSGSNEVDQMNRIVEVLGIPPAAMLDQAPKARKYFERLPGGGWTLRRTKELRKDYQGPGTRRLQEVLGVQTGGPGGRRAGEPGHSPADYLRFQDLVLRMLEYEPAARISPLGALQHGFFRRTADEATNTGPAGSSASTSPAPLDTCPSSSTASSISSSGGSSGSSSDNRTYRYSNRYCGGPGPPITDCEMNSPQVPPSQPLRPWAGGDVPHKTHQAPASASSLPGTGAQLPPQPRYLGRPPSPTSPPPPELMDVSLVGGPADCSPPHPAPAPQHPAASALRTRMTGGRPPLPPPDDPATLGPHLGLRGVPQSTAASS

EPHA2 = target: T6, EPHA2 (Homo sapiens, UniProt P29317)
T6 construct: purchased Eurofins DiscoverX, LLC; host or cells: E. coli (T7 phage) or HEK-293

IKKβ = target: T7, IKKβ (Homo sapiens, UniProt O14920)
T7 construct: purchased Eurofins DiscoverX, LLC; host or cells: E. coli (T7 phage) or HEK-293
T7 sequence (O14920 1-756): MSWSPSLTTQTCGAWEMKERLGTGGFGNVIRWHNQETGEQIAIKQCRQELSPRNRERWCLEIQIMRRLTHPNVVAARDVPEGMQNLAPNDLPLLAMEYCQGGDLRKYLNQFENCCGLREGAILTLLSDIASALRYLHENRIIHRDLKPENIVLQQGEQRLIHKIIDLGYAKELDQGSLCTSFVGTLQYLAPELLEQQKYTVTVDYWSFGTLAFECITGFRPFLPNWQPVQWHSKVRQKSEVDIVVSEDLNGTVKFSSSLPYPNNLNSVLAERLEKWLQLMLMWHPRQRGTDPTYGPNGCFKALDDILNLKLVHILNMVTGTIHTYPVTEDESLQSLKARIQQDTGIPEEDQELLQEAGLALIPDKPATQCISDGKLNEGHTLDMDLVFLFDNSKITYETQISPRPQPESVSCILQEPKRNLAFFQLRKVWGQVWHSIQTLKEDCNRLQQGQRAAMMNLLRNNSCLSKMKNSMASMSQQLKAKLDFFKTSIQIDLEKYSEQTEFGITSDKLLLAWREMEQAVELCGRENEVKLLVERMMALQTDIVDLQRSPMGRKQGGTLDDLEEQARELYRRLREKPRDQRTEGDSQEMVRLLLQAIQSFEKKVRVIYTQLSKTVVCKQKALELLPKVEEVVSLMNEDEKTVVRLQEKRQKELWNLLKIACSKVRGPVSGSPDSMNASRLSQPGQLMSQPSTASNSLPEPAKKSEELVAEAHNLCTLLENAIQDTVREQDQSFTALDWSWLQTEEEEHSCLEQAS

ABL1-phosphorylated = target: T8, ABL1-phosphorylated (Homo sapiens, UniProt P00519)
T8 construct: purchased Eurofins DiscoverX, LLC; host or cells: E. coli BL21-derived (T7 phage) or HEK-293

ERBB2 = target: T9, ERBB2 (Homo sapiens, UniProt P04626)
T9 construct: purchased Eurofins DiscoverX, LLC; host or cells: E. coli (T7 phage) or HEK-293
T9 sequence (P04626 23-1255): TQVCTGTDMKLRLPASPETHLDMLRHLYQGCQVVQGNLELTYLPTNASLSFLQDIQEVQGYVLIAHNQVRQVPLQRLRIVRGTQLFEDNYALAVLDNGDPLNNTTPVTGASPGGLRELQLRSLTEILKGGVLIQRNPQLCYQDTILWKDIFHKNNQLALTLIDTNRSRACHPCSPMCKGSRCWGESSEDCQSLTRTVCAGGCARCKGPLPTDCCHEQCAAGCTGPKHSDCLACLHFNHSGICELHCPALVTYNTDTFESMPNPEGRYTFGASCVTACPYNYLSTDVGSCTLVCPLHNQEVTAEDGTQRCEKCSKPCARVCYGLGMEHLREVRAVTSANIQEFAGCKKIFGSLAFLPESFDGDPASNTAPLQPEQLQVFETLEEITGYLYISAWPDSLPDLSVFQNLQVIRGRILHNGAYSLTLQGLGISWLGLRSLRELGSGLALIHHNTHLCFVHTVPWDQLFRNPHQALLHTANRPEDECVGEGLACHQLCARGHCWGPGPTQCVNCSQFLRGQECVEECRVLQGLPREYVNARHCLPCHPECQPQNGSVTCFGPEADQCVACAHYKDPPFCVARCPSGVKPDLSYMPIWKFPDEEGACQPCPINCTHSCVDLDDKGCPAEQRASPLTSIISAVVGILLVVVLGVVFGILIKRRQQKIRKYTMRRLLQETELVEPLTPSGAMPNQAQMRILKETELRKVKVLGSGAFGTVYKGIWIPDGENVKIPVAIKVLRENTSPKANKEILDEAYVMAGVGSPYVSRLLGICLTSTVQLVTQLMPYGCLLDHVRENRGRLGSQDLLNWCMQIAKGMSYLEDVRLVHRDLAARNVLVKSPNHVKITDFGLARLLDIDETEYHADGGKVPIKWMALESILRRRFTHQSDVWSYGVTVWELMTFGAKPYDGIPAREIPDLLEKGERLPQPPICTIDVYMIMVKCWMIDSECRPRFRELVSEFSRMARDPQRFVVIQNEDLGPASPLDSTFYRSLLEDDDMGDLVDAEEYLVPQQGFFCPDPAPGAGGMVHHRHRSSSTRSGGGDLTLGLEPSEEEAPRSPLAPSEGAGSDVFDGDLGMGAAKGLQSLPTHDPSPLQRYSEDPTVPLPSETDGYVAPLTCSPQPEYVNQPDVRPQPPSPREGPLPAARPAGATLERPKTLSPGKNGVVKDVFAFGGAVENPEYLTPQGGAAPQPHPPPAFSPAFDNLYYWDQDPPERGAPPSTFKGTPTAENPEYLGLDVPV

PIK3C2B = target: T10, PIK3C2B (Homo sapiens, UniProt O00750)
T10 construct: purchased Eurofins DiscoverX, LLC; host or cells: E. coli BL21-derived host (T7 phage) or HEK-293

T2 sequence (P50750 whole entry): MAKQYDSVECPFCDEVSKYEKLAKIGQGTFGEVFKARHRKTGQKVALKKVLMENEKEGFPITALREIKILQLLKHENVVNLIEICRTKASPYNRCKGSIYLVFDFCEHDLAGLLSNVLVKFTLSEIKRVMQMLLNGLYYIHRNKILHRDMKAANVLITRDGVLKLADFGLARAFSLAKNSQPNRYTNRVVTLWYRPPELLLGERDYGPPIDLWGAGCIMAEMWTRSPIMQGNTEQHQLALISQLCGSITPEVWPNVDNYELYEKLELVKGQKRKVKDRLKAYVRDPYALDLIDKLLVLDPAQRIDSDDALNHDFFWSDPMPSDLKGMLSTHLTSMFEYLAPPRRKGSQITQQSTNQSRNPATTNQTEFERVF
T1 sequence (P27448 whole entry): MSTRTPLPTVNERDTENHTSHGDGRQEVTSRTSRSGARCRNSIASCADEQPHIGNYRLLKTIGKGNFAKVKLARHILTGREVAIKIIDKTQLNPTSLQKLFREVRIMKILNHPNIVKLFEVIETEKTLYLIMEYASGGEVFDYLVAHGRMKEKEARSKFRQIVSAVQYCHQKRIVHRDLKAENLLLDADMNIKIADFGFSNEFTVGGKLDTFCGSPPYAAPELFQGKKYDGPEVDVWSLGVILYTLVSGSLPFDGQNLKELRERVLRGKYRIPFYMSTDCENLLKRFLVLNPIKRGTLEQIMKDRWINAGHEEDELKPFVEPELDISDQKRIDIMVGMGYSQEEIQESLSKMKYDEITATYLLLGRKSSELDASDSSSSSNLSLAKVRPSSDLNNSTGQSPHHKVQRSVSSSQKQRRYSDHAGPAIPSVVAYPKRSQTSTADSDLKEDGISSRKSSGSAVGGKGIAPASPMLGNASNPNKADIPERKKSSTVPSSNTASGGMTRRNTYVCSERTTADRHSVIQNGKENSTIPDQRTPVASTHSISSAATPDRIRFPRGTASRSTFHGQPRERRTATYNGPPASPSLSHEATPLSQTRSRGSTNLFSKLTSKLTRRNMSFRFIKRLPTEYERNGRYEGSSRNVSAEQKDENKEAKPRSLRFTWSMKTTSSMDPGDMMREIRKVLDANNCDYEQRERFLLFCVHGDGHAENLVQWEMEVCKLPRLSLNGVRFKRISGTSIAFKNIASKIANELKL

| Compound | RA @ 1000nM (MARK3) [%] | RA @ 10000nM (MARK3) [%] | RA @ 1000nM (CDK9) [%] | RA @ 10000nM (CDK9) [%] | RA @ 1000nM (LKB1) [%] | RA @ 10000nM (LKB1) [%] | RA @ 1000nM (MAP3K4) [%] | RA @ 10000nM (MAP3K4) [%] | RA @ 1000nM (DYRK1B) [%] | RA @ 10000nM (DYRK1B) [%] | RA @ 1000nM (EPHA2) [%] | RA @ 10000nM (EPHA2) [%] | RA @ 1000nM (IKKβ) [%] | RA @ 10000nM (IKKβ) [%] | RA @ 1000nM (ABL1-phosphorylated) [%] | RA @ 10000nM (ABL1-phosphorylated) [%] | RA @ 1000nM (ERBB2) [%] | RA @ 10000nM (ERBB2) [%] | RA @ 1000nM (PIK3C2B) [%] | RA @ 10000nM (PIK3C2B) [%] |
| --- | --- | --- | --- | --- | --- | --- | --- | --- | --- | --- | --- | --- | --- | --- | --- | --- | --- | --- | --- | --- |
| CC(C)Cn1ncc2cc(Cc3ccc(F)cc3F)c(C(=O)NCCN(C)C)cc21 [Compound 94, 5-(2,4-Difluorobenzyl)-N-(2-(dimethylamino)ethyl)-1-isobutyl-1H-indazole-6-carboxamide] | 100 | 100 | 100 | 100 | 100 | 96 | 49 | 100 | 100 | 85 | 97 | 100 | 89 | 89 | 79 | 53 | 74 | 81 | 90 | 82 |
| CN(C)CCNC(=O)c1cc2c(cnn2CC2CCCCC2)cc1Cc1ccc(F)cc1F [Compound 95, 1-(Cyclohexylmethyl)-5-(2,4-difluorobenzyl)-N-(2-(dimethylamino)ethyl)-1H-indazole-6-carboxamide] | 79 | 86 | 100 | 93 | 100 | 86 | 100 | 60 | 95 | 100 | 100 | 100 | 93 | 80 | 81 | 85 | 84 | 78 | 91 | 91 |
